According to patent publication US20150125509A1, “TREATMENT OF FISH POPULATIONS WITH LUFENURON” (priority 2012, published 2015):

Test system: L. salmonis
Test: Example 1: in-feed treatment in sea water, natural sea louse infestation, L. salmonis counts
Type: in vivo, Lepeophtheirus salmonis on Atlantic Salmon, S. salar
Details: for L. salmonis: all stages, Treated, average group counts / L. salmonis: pre- & adults, Efficacy / L. salmonis: pre- & adults, Treated, average group counts: sea water
Description: Three groups of 150 salmon (Atlantic Salmon, S. salar) of average weight 238 g were treated with medicated pellets containing lufenuron at a dose of respectively 3, 5 and 10 mg/kg/day during 7 consecutive days. The medicated pellets were prepared by dry coating commercially available fish feed pellets with a lufenuron-containing pre-mix to reach a content of 0.03, 0.05 and 0.1% (w/w) lufenuron in the fish feed and administered at a 1% feeding rate. The treatment was carried out in sea water.
Each group was maintained in a separate cage. A fourth cage containing 150 salmon of average weight 238 g was added to the study as a non-treated control group.
After treatment, the fish were exposed to natural sea louse infestation for a period of 9 months. During the study the water temperature varied between 4 and 12° C. Fish weight and sea louse numbers were assessed 1 day post-treatment, 1 week post-treatment and afterwards on a monthly basis until month 9. Counts were conducted on 10 fish at each sampling occasion. The numbers of chalimus, pre-adults and adult male, mobile and mature female L. salmonis were recorded for each fish. No distinction was made between chalimus stages I-IV or between pre-adult and adult male stages.
Efficacy was calculated using the formula:
% Efficacy=100−(100×mean of treatment group/mean of control).

[1] = 3 mg/kg/day 7 days in-feed, 1 month post-treatment
[2] = 3 mg/kg/day 7 days in-feed, 1 week post-treatment
[3] = 3 mg/kg/day 7 days in-feed, 2 month post-treatment
[4] = 3 mg/kg/day 7 days in-feed, 3 month post-treatment
[5] = 3 mg/kg/day 7 days in-feed, 4 month post-treatment
[6] = 3 mg/kg/day 7 days in-feed, 5 month post-treatment
[7] = 3 mg/kg/day 7 days in-feed, 6 month post-treatment
[8] = 3 mg/kg/day 7 days in-feed, 1 day post-treatment
[9] = 5 mg/kg/day 7 days in-feed, 1 month post-treatment
[10] = 5 mg/kg/day 7 days in-feed, 1 week post-treatment
[11] = 5 mg/kg/day 7 days in-feed, 2 month post-treatment
[12] = 5 mg/kg/day 7 days in-feed, 3 month post-treatment
[13] = 5 mg/kg/day 7 days in-feed, 4 month post-treatment
[14] = 5 mg/kg/day 7 days in-feed, 5 month post-treatment
[15] = 5 mg/kg/day 7 days in-feed, 6 month post-treatment
[16] = 5 mg/kg/day 7 days in-feed, 7 month post-treatment
[17] = 5 mg/kg/day 7 days in-feed, 8 month post-treatment
[18] = 5 mg/kg/day 7 days in-feed, 9 month post-treatment
[19] = 5 mg/kg/day 7 days in-feed, 1 day post-treatment
[20] = 10 mg/kg/day 7 days in-feed, 1 month post-treatment
[21] = 10 mg/kg/day 7 days in-feed, 1 week post-treatment
[22] = 10 mg/kg/day 7 days in-feed, 2 month post-treatment
[23] = 10 mg/kg/day 7 days in-feed, 3 month post-treatment
[24] = 10 mg/kg/day 7 days in-feed, 4 month post-treatment
[25] = 10 mg/kg/day 7 days in-feed, 5 month post-treatment
[26] = 10 mg/kg/day 7 days in-feed, 6 month post-treatment
[27] = 10 mg/kg/day 7 days in-feed, 7 month post-treatment
[28] = 10 mg/kg/day 7 days in-feed, 8 month post-treatment
[29] = 10 mg/kg/day 7 days in-feed, 9 month post-treatment
[30] = 10 mg/kg/day 7 days in-feed, 1 day post-treatment

O=C(NC(=O)c1c(F)cccc1F)Nc1cc(Cl)c(OC(F)(F)C(F)C(F)(F)F)cc1Cl (stereo not shown) [lufenuron, N-{[2,5-Dichlor-4-(1,1,2,3,3,3-hexafluorpropoxy)phenyl]carbamoyl}-2,6-difluorbenzamid]
L. salmonis: all stages, Treated, average group counts [1]: 0.00
L. salmonis: pre- & adults, Efficacy [1]: 100%
L. salmonis: pre- & adults, Treated, average group counts [1]: 0.00
L. salmonis: all stages, Treated, average group counts [2]: 0.10
L. salmonis: pre- & adults, Treated, average group counts [2]: 0.10
L. salmonis: all stages, Treated, average group counts [3]: 0.30
L. salmonis: pre- & adults, Efficacy [3]: 95%
L. salmonis: pre- & adults, Treated, average group counts [3]: 0.10
L. salmonis: all stages, Treated, average group counts [4]: 0.20
L. salmonis: pre- & adults, Efficacy [4]: 95%
L. salmonis: pre- & adults, Treated, average group counts [4]: 0.10
L. salmonis: all stages, Treated, average group counts [5]: 0.00
L. salmonis: pre- & adults, Efficacy [5]: 100%
L. salmonis: pre- & adults, Treated, average group counts [5]: 0.00
L. salmonis: all stages, Treated, average group counts [6]: 0.10
L. salmonis: pre- & adults, Efficacy [6]: 97%
L. salmonis: pre- & adults, Treated, average group counts [6]: 0.10
L. salmonis: all stages, Treated, average group counts [7]: 1.30
L. salmonis: pre- & adults, Efficacy [7]: 50%
L. salmonis: pre- & adults, Treated, average group counts [7]: 1.30
L. salmonis: all stages, Treated, average group counts [8]: 0.10
L. salmonis: pre- & adults, Treated, average group counts [8]: 0.10
L. salmonis: all stages, Treated, average group counts [9]: 1.90
L. salmonis: pre- & adults, Efficacy [9]: 90%
L. salmonis: pre- & adults, Treated, average group counts [9]: 0.10
L. salmonis: all stages, Treated, average group counts [10]: 0.00
L. salmonis: pre- & adults, Treated, average group counts [10]: 0.00
L. salmonis: all stages, Treated, average group counts [11]: 0.00
L. salmonis: pre- & adults, Efficacy [11]: 100%
L. salmonis: pre- & adults, Treated, average group counts [11]: 0.00
L. salmonis: all stages, Treated, average group counts [12]: 0.20
L. salmonis: pre- & adults, Efficacy [12]: 91%
L. salmonis: pre- & adults, Treated, average group counts [12]: 0.20
L. salmonis: all stages, Treated, average group counts [13]: 0.10
L. salmonis: pre- & adults, Efficacy [13]: 96%
L. salmonis: pre- & adults, Treated, average group counts [13]: 0.10
L. salmonis: all stages, Treated, average group counts [14]: 0.10
L. salmonis: pre- & adults, Efficacy [14]: 97%
L. salmonis: pre- & adults, Treated, average group counts [14]: 0.10
L. salmonis: all stages, Treated, average group counts [15]: 0.60
L. salmonis: pre- & adults, Efficacy [15]: 77%
L. salmonis: pre- & adults, Treated, average group counts [15]: 0.60
L. salmonis: all stages, Treated, average group counts [16]: 1.80
L. salmonis: pre- & adults, Efficacy [16]: 88%
L. salmonis: pre- & adults, Treated, average group counts [16]: 0.60
L. salmonis: all stages, Treated, average group counts [17]: 0.50
L. salmonis: pre- & adults, Efficacy [17]: 90%
L. salmonis: pre- & adults, Treated, average group counts [17]: 0.50
L. salmonis: all stages, Treated, average group counts [18]: 0.40
L. salmonis: pre- & adults, Efficacy [18]: 94%
L. salmonis: pre- & adults, Treated, average group counts [18]: 0.40
L. salmonis: all stages, Treated, average group counts [19]: 0.00
L. salmonis: pre- & adults, Treated, average group counts [19]: 0.00
L. salmonis: all stages, Treated, average group counts [20]: 3.10
L. salmonis: pre- & adults, Efficacy [20]: 100%
L. salmonis: pre- & adults, Treated, average group counts [20]: 0.00
L. salmonis: all stages, Treated, average group counts [21]: 0.20
L. salmonis: pre- & adults, Treated, average group counts [21]: 0.00
L. salmonis: all stages, Treated, average group counts [22]: 0.00
L. salmonis: pre- & adults, Efficacy [22]: 100%
L. salmonis: pre- & adults, Treated, average group counts [22]: 0.00
L. salmonis: all stages, Treated, average group counts [23]: 0.10
L. salmonis: pre- & adults, Efficacy [23]: 95%
L. salmonis: pre- & adults, Treated, average group counts [23]: 0.10
L. salmonis: all stages, Treated, average group counts [24]: 0.00
L. salmonis: pre- & adults, Efficacy [24]: 100%
L. salmonis: pre- & adults, Treated, average group counts [24]: 0.00
L. salmonis: all stages, Treated, average group counts [25]: 0.00
L. salmonis: pre- & adults, Efficacy [25]: 100%
L. salmonis: pre- & adults, Treated, average group counts [25]: 0.00
L. salmonis: all stages, Treated, average group counts [26]: 0.30
L. salmonis: pre- & adults, Efficacy [26]: 96%
L. salmonis: pre- & adults, Treated, average group counts [26]: 0.10
L. salmonis: all stages, Treated, average group counts [27]: 0.80
L. salmonis: pre- & adults, Efficacy [27]: 98%
L. salmonis: pre- & adults, Treated, average group counts [27]: 0.10
L. salmonis: all stages, Treated, average group counts [28]: 0.10
L. salmonis: pre- & adults, Efficacy [28]: 98%
L. salmonis: pre- & adults, Treated, average group counts [28]: 0.10
L. salmonis: all stages, Treated, average group counts [29]: 0.00
L. salmonis: pre- & adults, Efficacy [29]: 100%
L. salmonis: pre- & adults, Treated, average group counts [29]: 0.00
L. salmonis: all stages, Treated, average group counts [30]: 0.00
L. salmonis: pre- & adults, Treated, average group counts [30]: 0.00
protected the fish against sea louse infestation until (time post-treatment) (Example 1, 3 mg/kg treatment): 5 months
protected the fish against sea louse infestation until (time post treatment) (Example 1, 5 mg/kg treatment): 9 months
efficacy against sea lice at all time points (Example 1, 10 mg/kg group): more than 95%
protected the fish against sea louse infestation up to the end of the study (time post treatment) (Example 1, 10 mg/kg treatment): 9 months
